Literature values as cited in US20240075184A1, “BIODEGRADABLE IMPLANTS WITH ANTICORROSIVE COATINGS” (University of Georgia Research Foundation, Inc., priority 2021, published 2024).
Read-outs that look alike come from different tables or passages of the source.

Experiments:
[1] = 0.4 M in corrosion solution, high-purity Mg
[2] = 0.4 M in corrosion solution, Mg alloy AZ31

O=C1C=C(O)C(=O)c2ccccc21 [Lawsone, 2-hydroxy-1,4-napthoquinone]
inhibition efficiency [1]: 97% | inhibition efficiency [2]: 90%
